Test systems include SNB-75 CNS; RPMI-8226 leukemia; SK-OV-3 ovarian; SK-MEL-2 melanoma; HCT-15 colon; NCI-H23 lung; SK-MEL-5 melanoma; NCI-H460 lung; KM12 colon; SNB-19 CNS.
Test in all cases: growth of human tumour cells (NCI), 48 h

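Briefly, cells in 96-well plates were exposed to five compound concentrations for 48 h, and endpoints were estimated by linear interpolation. The concentration for 50% growth inhibition is given as GI50. TGI: total growth inhibition.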

Consider 14 molecules from PubChem BioAssay (NCI).

Consider `N#CSCC1CC(O)(c2ccccc2)C(c2ccccc2)C(c2ccc(Cl)cc2)O1` (stereo not given), for which the GI50 in the assay on SNB-75 CNS is 1.55 µM; in the assay on RPMI-8226 leukemia it was 1.44 µM; with SK-OV-3 ovarian, 2.68 µM; with SK-MEL-2 melanoma, 2.33 µM; in the assay with HCT-15 colon, 1.43 µM; in the assay on NCI-H23 lung, 1.57 µM. Besides, the GI50 in the assay with SK-MEL-5 melanoma is 1.63 µM. In addition, the TGI in the assay on SNB-75 CNS worked out at 4.28 µM; in the assay with RPMI-8226 leukemia, 4.68 µM; in the assay on SK-OV-3 ovarian, 6.21 µM; with SK-MEL-2 melanoma, 4.37 µM; with HCT-15 colon it was 3.38 µM; with NCI-H23 lung, 3.03 µM. For the same molecule, the TGI in the assay on SK-MEL-5 melanoma was determined as 2.98 µM.

As to `CCN(CC)c1c(C(=O)/C=C/c2ccccc2)c(-c2ccccc2)nn(C)c1=O`, the TGI in the assay with NCI-H460 lung, in the assay with KM12 colon, with SK-OV-3 ovarian, in the assay on SNB-19 CNS and in the assay on SK-MEL-5 melanoma was above 100 µM throughout.

Take `O=C(O)Cn1ccc(=O)c2ccc([N+](=O)[O-])cc21`: the TGI in the assay with NCI-H460 lung, in the assay with SNB-75 CNS, in the assay on KM12 colon, in the assay with SK-OV-3 ovarian, in the assay with SNB-19 CNS and in the assay with SK-MEL-2 melanoma was above 100 µM throughout. In addition, the TGI with HCT-15 colon, with NCI-H23 lung and in the assay on SK-MEL-5 melanoma was above 100 µM throughout.

For the molecule `COC(=O)C1=C(C(=O)OC)C2C=CC1C1C(Cl)=C(Cl)C21` (stereo not given), the TGI in the assay with NCI-H460 lung, with SNB-75 CNS, in the assay on KM12 colon, with RPMI-8226 leukemia, in the assay with SK-OV-3 ovarian and in the assay with SK-MEL-2 melanoma was above 100 µM in each case. Further, the TGI in the assay on HCT-15 colon, with NCI-H23 lung and in the assay with SK-MEL-5 melanoma was above 100 µM in each case.

As to `CCCCCCCCCCCCCC(=O)OC1CC(=O)OC1CO` (stereo not given), the TGI with NCI-H460 lung is above 100 µM; in the assay with SNB-75 CNS, above 100 µM; in the assay with KM12 colon, 56.7 µM; with RPMI-8226 leukemia, above 100 µM; in the assay with SK-OV-3 ovarian, above 100 µM; in the assay with SNB-19 CNS, above 100 µM. Also, the TGI in the assay on SK-MEL-2 melanoma is above 100 µM; in the assay with HCT-15 colon it was 38.4 µM; in the assay with SK-MEL-5 melanoma it was above 100 µM.

In the case of `N#CC1(Cc2ccc(N)cc2)c2ccccc2C=CN1C(=O)c1ccccc1` (stereo not given), the TGI in the assay with SNB-75 CNS, in the assay on KM12 colon, in the assay on RPMI-8226 leukemia, in the assay with SK-OV-3 ovarian, in the assay on SNB-19 CNS and in the assay with SK-MEL-2 melanoma was above 100 µM each time. Besides, the TGI was above 100 µM in the assay with NCI-H23 lung and 47.2 µM in the assay on SK-MEL-5 melanoma.

As for `CCCCN(CCCC)C(=O)C(=O)C(C#N)c1ccc(C)cc1` (stereo not given), the TGI in the assay on NCI-H460 lung, in the assay with SNB-75 CNS, in the assay with KM12 colon, in the assay with RPMI-8226 leukemia, in the assay on SNB-19 CNS and with SK-MEL-2 melanoma was above 100 µM throughout. Moreover, the TGI in the assay with HCT-15 colon, with NCI-H23 lung and with SK-MEL-5 melanoma was above 100 µM in each case.

As for `O=C(CI)NC1Oc2ccccc2-c2oc(=O)c(-c3ccccc3)cc21` (stereo not given), the GI50 with SNB-75 CNS is 1.54 µM; in the assay on KM12 colon, 1.77 µM; in the assay on RPMI-8226 leukemia, 2.08 µM; in the assay with SK-OV-3 ovarian it was 1.83 µM; in the assay with SNB-19 CNS, 2.64 µM; in the assay with SK-MEL-2 melanoma it was 2.17 µM. In the assay with SK-MEL-5 melanoma, the GI50 is 3.26 µM. Moreover, the TGI in the assay on SNB-75 CNS is 2.94 µM; with KM12 colon it was 3.46 µM; with RPMI-8226 leukemia it was 4.79 µM; in the assay on SK-OV-3 ovarian, 3.48 µM; in the assay on SNB-19 CNS it was 7.54 µM; in the assay on SK-MEL-2 melanoma it was 5.43 µM. The same molecule displayed a TGI with SK-MEL-5 melanoma of 11.4 µM.

With `OCc1ccc2[n+](c1)CCC1c3ccccc3NC21` (stereo not given), the TGI in the assay with NCI-H460 lung, in the assay on KM12 colon, in the assay with RPMI-8226 leukemia, with SK-OV-3 ovarian, in the assay with SNB-19 CNS and in the assay on SK-MEL-2 melanoma was above 300 µM each time. Besides, the TGI in the assay on HCT-15 colon, in the assay on NCI-H23 lung and with SK-MEL-5 melanoma was above 300 µM in each case.

`Cc1ccc(S(=O)(=O)C(CC(=O)N2CCCC2)C(=O)c2ccccc2)cc1` (stereo not given): the TGI with NCI-H460 lung, in the assay on SNB-75 CNS, with KM12 colon, with SNB-19 CNS, with NCI-H23 lung and in the assay with SK-MEL-5 melanoma was above 100 µM throughout.

Turning to `CN1CCN(Cc2ccc(NC(=O)c3cncc(C#Cc4cnc(N)c5ccc(C#N)cc45)c3)cc2C(F)(F)F)CC1`, the GI50 is 0.0976 µM in the assay on NCI-H460 lung; 0.123 µM in the assay on SNB-75 CNS; 0.005 µM with KM12 colon; 0.0775 µM in the assay with RPMI-8226 leukemia; 0.0212 µM with SK-OV-3 ovarian; 0.0217 µM in the assay with SK-MEL-2 melanoma. Moreover, the GI50 is 0.122 µM in the assay on HCT-15 colon, 0.172 µM in the assay with NCI-H23 lung and 0.176 µM in the assay on SK-MEL-5 melanoma. Further, the TGI in the assay on NCI-H460 lung is 1.1 µM; in the assay with SNB-75 CNS it was 0.876 µM; in the assay on KM12 colon, 0.603 µM; in the assay with RPMI-8226 leukemia, 1.25 µM; in the assay with SK-OV-3 ovarian, 0.599 µM; in the assay on SK-MEL-2 melanoma it was 0.353 µM. For the same molecule, the TGI is 0.787 µM with HCT-15 colon, 1.27 µM in the assay on NCI-H23 lung and 0.696 µM in the assay on SK-MEL-5 melanoma.

As to `N=C1CSC2=NC3=C(CCC/C3=C\c3ccccc3)C(c3ccccc3)N12` (stereo not given), the TGI in the assay on NCI-H460 lung stood at 14.7 µM; in the assay with SNB-75 CNS, 23.7 µM; in the assay on KM12 colon, 13 µM; in the assay on RPMI-8226 leukemia it was 5.57 µM; in the assay on SK-OV-3 ovarian, 28.4 µM; in the assay with SNB-19 CNS it was 19.9 µM. Also, the TGI in the assay with SK-MEL-2 melanoma is 5.56 µM; in the assay on NCI-H23 lung, 15.6 µM; in the assay with SK-MEL-5 melanoma, 19.3 µM.

Consider `CCOc1ccc2c(c1)[n+]([O-])c(S(=O)(=O)c1ccc(C)cc1)c(N)[n+]2[O-]`, for which the TGI in the assay on NCI-H460 lung, in the assay on SNB-75 CNS, in the assay with KM12 colon, in the assay on RPMI-8226 leukemia, in the assay on SK-OV-3 ovarian and in the assay with SNB-19 CNS was above 100 µM throughout. Further, the TGI in the assay on SK-MEL-2 melanoma, with NCI-H23 lung and in the assay on SK-MEL-5 melanoma was above 100 µM throughout.

`O=C1C=CC(=Nc2ccc3c(c2)C(Br)c2ccccc2-3)O1` (stereo not given): the TGI in the assay with NCI-H460 lung, in the assay with SNB-75 CNS, in the assay on RPMI-8226 leukemia, in the assay with SK-OV-3 ovarian, in the assay on SNB-19 CNS and in the assay with HCT-15 colon was above 100 µM each time. The molecule also showed a TGI in the assay with NCI-H23 lung above 100 µM.
